Strand notation (5' to 3'): a small letter for the sugar, then the base; units joined by * are phosphorothioate-linked, units joined directly phosphodiester-linked; [ ] holds rarer units or linkages, { } end groups; capitals alone tell only the bases. e = 2'-O-(2-methoxyethyl) (MOE); [5mC] = 5-methylcytosine; d = 2'-deoxy (DNA)
System: mouse short heterodimer partner-1 mRNA
Test: Inhibition of mouse short heterodimer partner-1 mRNA levels in primary hepatocytes, quantitative real-time PCR
Assay type: cell-based
Set-up: concentration or dose not given beside the values
Details: averages from two experiments
Procedure: Primary mouse hepatocytes were prepared from CD-1 mice purchased from Charles River Labs (Wilmington, Mass.) and were routinely cultured in Hepatoyte Attachment Media (Gibco) supplemented with 10% Fetal Bovine Serum (Gibco/Life Technologies, Gaithersburg, Md.), 250 nM dexamethasone (Sigma), and 10 nM bovine insulin (Sigma). Cells were seeded into 96-well plates (Falcon-Primaria #3872) at a density of 10000 cells/well for use in RT-PCR analysis.
Cells were harvested 16-24 hours after oligonucleotide treatment.
Vacuum was applied for 15 seconds. […] The elution step was repeated with an additional 60 μL water.
Total RNA is quantified using RiboGreen™ RNA quantification reagent from Molecular Probes.
Probes and primers to mouse short heterodimer partner-1 were designed to hybridize to a mouse short heterodimer partner-1 sequence, using published sequence information (GenBank accession number L75567, incorporated herein as SEQ ID NO: 10).
All cytidine residues are 5-methylcytidines. […] Data are averages from two experiments. If present, “N.D.” indicates “no data”.

| Substance | % INHIB (inhibition of mouse short heterodimer partner-1 mRNA levels) |
| --- | --- |
| 148273 (antisense eT*eG*eG*e[5mC]*eT*dT*d[5mC]*d[5mC]*dT*d[5mC]*dT*dA*dG*d[5mC]*dA*eG*eG*eA*eT*e[5mC]) [compound 148273] | 33% |
| ISIS 148264: 2′-MOE gapmer, phosphorothioate, GCATACAGAATAGTCGGACG, targets mouse short heterodimer partner-1 RNA (antisense eG*e[5mC]*eA*eT*eA*d[5mC]*dA*dG*dA*dA*dT*dA*dG*dT*d[5mC]*eG*eG*eA*e[5mC]*eG) | at least 50% |
| 148267 (antisense e[5mC]*eA*e[5mC]*eA*eG*dA*d[5mC]*dG*d[5mC]*dA*d[5mC]*dA*dG*dG*d[5mC]*e[5mC]*eG*e[5mC]*eT*eG) [compound 148267] | 28% |
| 148282 (antisense eT*eG*eA*eT*eG*dT*d[5mC]*dA*dA*d[5mC]*dG*dT*d[5mC]*dT*d[5mC]*e[5mC]*e[5mC]*eA*eT*eG) [compound 148282] | 22% |
| 148264 (antisense eG*e[5mC]*eA*eT*eA*d[5mC]*dA*dG*dA*dA*dT*dA*dG*dT*d[5mC]*eG*eG*eA*e[5mC]*eG) [compound 148264] | 60% |
| 148285 (antisense eA*e[5mC]*eA*eG*eT*dT*dA*dG*dT*dA*dG*dT*dG*dT*dA*e[5mC]*eA*e[5mC]*eT*eG) [compound 148285] | 50% |
| 148275 (antisense eT*eG*eT*eG*eG*d[5mC]*d[5mC]*dG*dG*dT*d[5mC]*dT*dG*dA*dT*eG*eG*e[5mC]*eT*eG) [compound 148275] | 28% |
| 148281 (antisense eA*eG*eA*eA*eG*dA*dG*dA*dT*d[5mC]*dT*dA*d[5mC]*d[5mC]*dA*eG*eA*eA*eG*eG) [compound 148281] | 48% |
| ISIS 148277: 2′-MOE gapmer, phosphorothioate, TTCAGGTACGCATACTCCTT, targets mouse short heterodimer partner-1 RNA (antisense eT*eT*e[5mC]*eA*eG*dG*dT*dA*d[5mC]*dG*d[5mC]*dA*dT*dA*d[5mC]*eT*e[5mC]*e[5mC]*eT*eT) | at least 50% |
| 148266 (antisense eA*eG*eG*e[5mC]*eA*dG*dT*dG*dG*d[5mC]*dT*dG*dT*dG*dA*eG*eA*eT*eG*e[5mC]) [compound 148266] | 44% |
| ISIS 148269: 2′-MOE gapmer, phosphorothioate, TAGGACATCCAAGGCCTCCC, targets mouse short heterodimer partner-1 RNA (antisense eT*eA*eG*eG*eA*d[5mC]*dA*dT*d[5mC]*d[5mC]*dA*dA*dG*dG*d[5mC]*e[5mC]*eT*e[5mC]*e[5mC]*e[5mC]) | at least 50% |
| 148279 (antisense eG*eG*eT*eA*eG*dA*dG*dG*d[5mC]*d[5mC]*dA*dT*dG*dA*dG*eG*eA*eG*eG*eA) [compound 148279] | 43% |
| 148272 (antisense e[5mC]*eG*eG*eA*eG*d[5mC]*d[5mC]*dT*d[5mC]*dA*dG*d[5mC]*d[5mC]*dA*d[5mC]*e[5mC]*eT*e[5mC]*eG*eA) [compound 148272] | 69% |
| 148265 (antisense eA*eG*eG*eT*eG*d[5mC]*dA*dA*d[5mC]*dG*dG*dG*d[5mC]*d[5mC]*dT*eG*eG*eT*e[5mC]*e[5mC]) [compound 148265] | 41% |
| 148270 (antisense e[5mC]*eA*e[5mC]*eT*e[5mC]*dT*dA*dG*d[5mC]*dA*dG*d[5mC]*d[5mC]*dG*d[5mC]*e[5mC]*eG*e[5mC]*eT*eG) [compound 148270] | 46% |
| 148276 (antisense eA*eG*eA*eA*eA*dG*dA*d[5mC]*dT*d[5mC]*d[5mC]*dA*dG*dG*d[5mC]*eA*eG*e[5mC]*eG*e[5mC]) [compound 148276] | 56% |
| ISIS 148285: 2′-MOE gapmer, phosphorothioate, ACAGTTAGTAGTGTACACTG, targets mouse short heterodimer partner-1 RNA (antisense eA*e[5mC]*eA*eG*eT*dT*dA*dG*dT*dA*dG*dT*dG*dT*dA*e[5mC]*eA*e[5mC]*eT*eG) | at least 50% |

| Substance | % INHIB (inhibition of mouse short heterodimer partner-1 mRNA levels) |
| --- | --- |
| ISIS 148286: 2′-MOE gapmer, phosphorothioate, AGTCATCAAGGGCTTGCTGG, targets mouse short heterodimer partner-1 RNA (antisense eA*eG*eT*e[5mC]*eA*dT*d[5mC]*dA*dA*dG*dG*dG*d[5mC]*dT*dT*eG*e[5mC]*eT*eG*eG) | at least 50% |
| 148263 (antisense eA*e[5mC]*e[5mC]*eT*eG*d[5mC]*dA*dG*dA*dG*d[5mC]*d[5mC]*d[5mC]*dT*dG*eG*e[5mC]*eA*eT*eG) [compound 148263] | 0% |
| 148277 (antisense eT*eT*e[5mC]*eA*eG*dG*dT*dA*d[5mC]*dG*d[5mC]*dA*dT*dA*d[5mC]*eT*e[5mC]*e[5mC]*eT*eT) [compound 148277] | 62% |
| 148274 (antisense eG*eG*e[5mC]*eA*e[5mC]*d[5mC]*d[5mC]*dT*dG*dG*dG*dT*dA*d[5mC]*d[5mC]*eG*e[5mC]*eT*eG*e[5mC]) [compound 148274] | 22% |
| ISIS 148287: 2′-MOE gapmer, phosphorothioate, GTTCTGTACAAAGTCAGGAG, targets mouse short heterodimer partner-1 RNA (antisense eG*eT*eT*e[5mC]*eT*dG*dT*dA*d[5mC]*dA*dA*dA*dG*dT*d[5mC]*eA*eG*eG*eA*eG) | at least 50% |
| 148271 (antisense eA*eA*e[5mC]*e[5mC]*e[5mC]*dA*dA*dG*d[5mC]*dA*dG*dG*dA*dA*dG*eA*eG*eA*eG*eG) [compound 148271] | 56% |
| 148268 (antisense eT*eG*e[5mC]*eA*eG*dG*dT*dG*d[5mC]*dG*dG*dT*dG*d[5mC]*dG*eG*eA*eG*e[5mC]*eA) [compound 148268] | 19% |
| 148280 (antisense eG*eT*eG*e[5mC]*e[5mC]*dT*dG*dG*dA*dA*dT*dG*dT*dT*d[5mC]*eT*eT*eG*eA*eG) [compound 148280] | 33% |
| ISIS 148271: 2′-MOE gapmer, phosphorothioate, AACCCAAGCAGGAAGAGAGG, targets mouse short heterodimer partner-1 RNA (antisense eA*eA*e[5mC]*e[5mC]*e[5mC]*dA*dA*dG*d[5mC]*dA*dG*dG*dA*dA*dG*eA*eG*eA*eG*eG) | at least 50% |
| 148269 (antisense eT*eA*eG*eG*eA*d[5mC]*dA*dT*d[5mC]*d[5mC]*dA*dA*dG*dG*d[5mC]*e[5mC]*eT*e[5mC]*e[5mC]*e[5mC]) [compound 148269] | 59% |
| 148278 (antisense e[5mC]*eA*e[5mC]*eA*eG*dT*dG*d[5mC]*d[5mC]*d[5mC]*dA*dG*dT*dG*dA*eG*e[5mC]*e[5mC]*eT*e[5mC]) [compound 148278] | 36% |
| ISIS 148272: 2′-MOE gapmer, phosphorothioate, CGGAGCCTCAGCCACCTCGA, targets mouse short heterodimer partner-1 RNA (antisense e[5mC]*eG*eG*eA*eG*d[5mC]*d[5mC]*dT*d[5mC]*dA*dG*d[5mC]*d[5mC]*dA*d[5mC]*e[5mC]*eT*e[5mC]*eG*eA) | at least 50% |
| ISIS 148284: 2′-MOE gapmer, phosphorothioate, GAGGCACCAGACTCCATTCC, targets mouse short heterodimer partner-1 RNA (antisense eG*eA*eG*eG*e[5mC]*dA*d[5mC]*d[5mC]*dA*dG*dA*d[5mC]*dT*d[5mC]*d[5mC]*eA*eT*eT*e[5mC]*e[5mC]) | at least 50% |
| 148262 (antisense eT*eG*eA*e[5mC]*eT*dG*dG*d[5mC]*d[5mC]*dG*dG*dA*dG*d[5mC]*dT*e[5mC]*eA*eT*eG*eG) [compound 148262] | 50% |
| ISIS 148262: 2′-MOE gapmer, phosphorothioate, TGACTGGCCGGAGCTCATGG, targets mouse short heterodimer partner-1 RNA (antisense eT*eG*eA*e[5mC]*eT*dG*dG*d[5mC]*d[5mC]*dG*dG*dA*dG*d[5mC]*dT*e[5mC]*eA*eT*eG*eG) | at least 50% |
| ISIS 148276: 2′-MOE gapmer, phosphorothioate, AGAAAGACTCCAGGCAGCGC, targets mouse short heterodimer partner-1 RNA (antisense eA*eG*eA*eA*eA*dG*dA*d[5mC]*dT*d[5mC]*d[5mC]*dA*dG*dG*d[5mC]*eA*eG*e[5mC]*eG*e[5mC]) | at least 50% |

From patent US20030083484A1, “Antisense modulation of short heterodimer partner-1 expression” (priority 2001, published 2003)
